Test [1] deals with T1, Protein arginine N-methyltransferase 1 (Homo sapiens, UniProt Q99873). The test can be described thus: Displacement of [3H]SAM from PRMT1 (unknown origin) at 10 uM preincubated for 15 mins followed by [3H]SAM addition measured after 60 mins by radiometric/luminescence based assay relative to control. Conditions: time 75.0 min.
Target sequence in this assay (Q99873 whole entry, looked up): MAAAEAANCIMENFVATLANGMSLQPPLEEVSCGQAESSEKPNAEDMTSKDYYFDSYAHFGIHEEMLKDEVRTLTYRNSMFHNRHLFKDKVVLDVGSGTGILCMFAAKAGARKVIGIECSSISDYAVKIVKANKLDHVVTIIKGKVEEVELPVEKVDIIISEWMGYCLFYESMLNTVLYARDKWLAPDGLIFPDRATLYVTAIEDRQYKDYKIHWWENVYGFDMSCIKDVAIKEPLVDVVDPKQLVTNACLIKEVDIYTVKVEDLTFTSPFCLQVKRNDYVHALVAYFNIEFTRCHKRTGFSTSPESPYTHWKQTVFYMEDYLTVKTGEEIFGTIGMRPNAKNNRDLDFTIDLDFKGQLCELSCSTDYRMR
Test [2] has as its target T1, Protein arginine N-methyltransferase 1. The test can be described thus: Displacement of [3H]SAM from PRMT1 (unknown origin) preincubated for 15 mins followed by [3H]SAM addition measured after 60 mins by radiometric/luminescence based assay. (In a radioligand displacement assay an active substance lowers the binding of a labelled ligand.)
Target sequence in this assay (Q99873 whole entry): as the sequence (Q99873 whole entry, looked up) above
Test [3] addresses Protein arginine N-methyltransferase 5 (Homo sapiens) (UniProt O14744). The test can be described thus: Inhibition of PRMT5 (unknown origin) using SAM as substrate incubated for 60 mins by chemiluminescence based assay.
In test [4] the test system is A549. The test can be described thus: Antiproliferative activity against human A549 cells incubated for 48 hrs by CCK8 assay. The class given is functional, cell-based. Conditions: A549, 48 h.
Test [5] concerns MDA-MB-231. The experiment in a line: Antiproliferative activity against human MDA-MB-231 cells incubated for 48 hrs by CCK8 assay. In kind it is functional, cell-based. Conditions: MDA-MB-231, 48 h. Background: Tetrazolium assays rely on reduction of a dye to a coloured formazan, in cell work by metabolically active cells.
The subject of test [6] is HepG2. The test can be described thus: Antiproliferative activity against human HepG2 cells incubated for 48 hrs by CCK8 assay. In kind it is functional, cell-based. Conditions: HepG2, 48 h.
Test [7] has as its system HeLa. The test can be described thus: Antiproliferative activity against human HeLa cells incubated for 48 hrs by CCK8 assay. The class given is functional, cell-based.
For test [8], the system named is HeLa. The test can be described thus: Induction of early apoptosis in human HeLa cells assessed as nuclear edge fusion incubated for 24 hrs by hoechst staining based analysis. The class given is functional, cell-based. Conditions: dose <= 32.0 µM.
In test [9] the test system is HeLa. The test can be described thus: Induction of early apoptosis in human HeLa cells assessed as nuclear fragmentation incubated for 24 hrs by hoechst staining based analysis. The class given is functional, cell-based. Conditions: dose <= 32.0 µM.
Test [10] concerns HeLa. The experiment in a line: Induction of early apoptosis in human HeLa cells assessed as dense nuclei incubated for 24 hrs by hoechst staining based analysis. The class given is functional, cell-based. Conditions: dose <= 32.0 µM.
The subject of test [11] is HeLa. The test can be described thus: Induction of early apoptosis in human HeLa cells assessed as reduction in number of cells incubated for 24 hrs by hoechst staining based analysis. In kind it is functional, cell-based. Conditions: dose <= 32.0 µM.
Test [12] concerns HeLa. The experiment in a line: Induction of apoptosis in human HeLa cells assessed as viable cells at 8 uM incubated for 24 hrs by flow cytometry (reference value: 66.3 %). In kind it is functional. Conditions: read-out: Activity. On the technique in general: Flow cytometry measures light scatter and fluorescence of single cells or particles in a stream.
Test [13] has as its system HeLa. The experiment in a line: Induction of apoptosis in human HeLa cells assessed as early apoptotic cells at 8 uM incubated for 24 hrs by flow cytometry (reference value: 28.2 %). The class given is functional.
For test [14], the system named is HeLa. The test can be described thus: Induction of apoptosis in human HeLa cells assessed as late apoptotic cells at 8 uM incubated for 24 hrs by flow cytometry (reference value: 4.37 %). In kind it is functional.
For test [15], the system named is HeLa. The experiment in a line: Induction of apoptosis in human HeLa cells assessed as necrotic cells at 8 uM incubated for 24 hrs by flow cytometry (reference value: 1.10 %). In kind it is functional.
The subject of test [16] is HeLa. The test can be described thus: Induction of apoptosis in human HeLa cells assessed as viable cells at 16 uM incubated for 24 hrs by flow cytometry (reference value: 66.3 %). In kind it is functional. Conditions: read-out: Activity.
Test [17] deals with HeLa. The experiment in a line: Induction of apoptosis in human HeLa cells assessed as early apoptotic cells at 16 uM incubated for 24 hrs by flow cytometry (reference value: 28.2 %). The class given is functional.
Test [18] relates to HeLa. The test can be described thus: Induction of apoptosis in human HeLa cells assessed as late apoptotic cells at 16 uM incubated for 24 hrs by flow cytometry (reference value: 4.37 %). In kind it is functional.
Test [19] deals with HeLa. The test can be described thus: Induction of apoptosis in human HeLa cells assessed as necrotic cells at 16 uM incubated for 24 hrs by flow cytometry (reference value: 1.10 %). The class given is functional.
In test [20] the test system is HeLa. The experiment in a line: Induction of apoptosis in human HeLa cells assessed as viable cells at 32 uM incubated for 24 hrs by flow cytometry (reference value: 66.3 %). In kind it is functional. Conditions: read-out: Activity.
For test [21], the system named is HeLa. The test can be described thus: Induction of apoptosis in human HeLa cells assessed as early apoptotic cells at 32 uM incubated for 24 hrs by flow cytometry (reference value: 28.2 %). The class given is functional.
Test [22] deals with HeLa. The experiment in a line: Induction of apoptosis in human HeLa cells assessed as late apoptotic cells at 32 uM incubated for 24 hrs by flow cytometry (reference value: 4.37 %). In kind it is functional.
The test system of test [23] is HeLa. The test can be described thus: Induction of apoptosis in human HeLa cells assessed as necrotic cells at 32 uM incubated for 24 hrs by flow cytometry (reference value: 1.10 %). In kind it is functional.
The subject of test [24] is HeLa. The experiment in a line: Inhibition of cell migration in human HeLa cells incubated upto 48 hrs by scratch wound healing assay. The class given is functional, cell-based. Conditions: dose 2-8 µM.
Test [25] deals with HeLa. The test can be described thus: Inhibition of cell migration in human HeLa cells incubated at 24 hrs by crystal violet staining based transwell assay. In kind it is functional. Conditions: dose 2-8 µM.
For test [26], the system named is HeLa. The experiment in a line: Downregulation of ADMA expression in human HeLa cells incubated for 48 hrs by Western blot analysis. The class given is functional, cell-based. Conditions: dose 2-8 µM.
Test [27] concerns HeLa. The test can be described thus: Effect on SDMA expression in human HeLa cells at 2 to 8 uM incubated for 48 hrs by Western blot analysis. Conditions: dose 2-8 µM. The class given is functional, cell-based.
The subject of test [28] is HeLa. The test can be described thus: Effect on PRMT1 expression in human HeLa cells at 2 to 8 uM incubated for 48 hrs by Western blot analysis. The class given is functional, cell-based. Conditions: dose 2-8 µM.
For test [29], the system named is HeLa. The test can be described thus: Downregulation of DDAH expression in human HeLa cells at 2 to 8 uM incubated for 48 hrs by Western blot analysis. In kind it is functional, cell-based. Conditions: dose 2-8 µM.
The test system of test [30] is HeLa. The test can be described thus: Downregulation of N-Cadherin expression in human HeLa cells incubated for 48 hrs by Western blot analysis. The class given is functional, cell-based. Conditions: dose 2-8 µM.
Test [31] concerns HeLa. The test can be described thus: Downregulation of MMP2 expression in human HeLa cells incubated for 48 hrs by Western blot analysis. The class given is functional, cell-based. Conditions: dose 2-8 µM.
The test system of test [32] is HeLa. The test can be described thus: Downregulation of pro-caspase 9 expression in human HeLa cells incubated for 48 hrs by Western blot analysis. The class given is functional, cell-based. Conditions: dose 2-8 µM.

One may read the inhibition as the relative decrease from the control value, in per cent. Usually IC50 stands for the concentration that gives 50% inhibition.

The source made the active and inactive calls. The calls are words filed in the database; no cut-off is given here.

Protein arginine N-methyltransferase 5 (Homo sapiens), sequence (O14744 whole entry): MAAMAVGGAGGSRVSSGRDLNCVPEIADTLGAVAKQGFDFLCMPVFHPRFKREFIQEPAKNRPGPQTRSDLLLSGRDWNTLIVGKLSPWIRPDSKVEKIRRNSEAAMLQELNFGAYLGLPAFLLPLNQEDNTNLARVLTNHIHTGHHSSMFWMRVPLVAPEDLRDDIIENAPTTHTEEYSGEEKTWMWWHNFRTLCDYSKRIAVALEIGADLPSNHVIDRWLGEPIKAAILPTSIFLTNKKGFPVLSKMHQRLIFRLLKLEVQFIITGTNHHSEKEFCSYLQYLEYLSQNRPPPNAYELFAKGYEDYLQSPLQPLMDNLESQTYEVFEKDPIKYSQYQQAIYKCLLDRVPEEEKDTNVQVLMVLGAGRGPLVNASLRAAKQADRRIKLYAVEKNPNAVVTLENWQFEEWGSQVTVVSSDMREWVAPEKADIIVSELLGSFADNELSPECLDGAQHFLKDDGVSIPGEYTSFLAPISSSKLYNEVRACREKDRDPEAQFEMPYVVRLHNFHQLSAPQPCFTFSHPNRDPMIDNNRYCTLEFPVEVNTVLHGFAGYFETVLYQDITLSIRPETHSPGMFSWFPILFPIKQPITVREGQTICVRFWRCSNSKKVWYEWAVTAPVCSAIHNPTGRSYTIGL

In turn, `CNCCNCc1sc(-c2ccc(OC)cc2)nc1-c1ccc(OC)cc1` came in with an inhibition in test [1] of 7%.

As to `CNCCN(C)Cc1sc(-c2ccc(N3CCOCC3)cc2)nc1-c1ccc(OC)cc1`, the inhibition was determined as 56% in test [1] and 6% in test [3]. Besides, the IC50 in test [2] turned out to be 7.07 µM; in [4], 33.9 µM; in test [5], 31.4 µM; in test [6], 20 µM; in test [7], 19.4 µM.

`CNCCN(C)Cc1sc(-c2ccc(OC(F)(F)F)cc2)nc1-c1cccc(OC)c1`: the inhibition in [1] turned out to be 35%.

With `CNCCN(C)Cc1sc(-c2cccc(OC(F)(F)F)c2)nc1-c1ccc(OC)cc1`, the inhibition in [1] was determined as 21%.

For the compound `CNCCN(C)Cc1sc(-c2ccc(OC)cc2)nc1-c1ccc(OC)cc1.Cl`, the inhibition was 60% in [1], 2.52% in test [3], “Dose-Dependent Effect” in test [24] and “Dose-Dependent Effect” in [25]. Also, the half-maximal inhibitory concentration (IC50) came out at 11.8 µM in test [2]; 18.4 µM in test [4]; 16.9 µM in test [5]; 16 µM in test [6]; 9.43 µM in test [7]. The Activity result is “Dose-Dependent Effect” in test [8]; “Dose-Dependent Effect” in test [9]; “Dose-Dependent Effect” in test [10]; “Dose-Dependent Effect” in test [11]; 35.9% in test [13]; 6.65% in [14]. In addition, the Activity in [15] was 1.33%; in test [17] it was 51.9%; in test [18], 17.5%; in [19] it was 1.33%; in test [21], 64.8%; in [22], 22.9%. Moreover, the Activity in test [23] is 0.97%; in [26], “Dose-Dependent Effect”; in test [30], “Dose-Dependent Effect”; in test [31] it was “Dose-Dependent Effect”. For the same compound, the viability at 8 µM in [12] amounted to 56.2%. Further, in test [16], the viability at 16 µM is 29.3%. Besides, the viability at 32 µM in test [20] is 11.3%. Moreover, the outcome in test [27] and in [28] was inactive. The outcome in test [29] and in test [32] was Active.

As to `N=C(N)c1ccc(-c2ccc(-c3ccc(C(=N)N)cc3)o2)cc1`, in test [1], the inhibition was 98.1%.

On to `CNCCN(C)Cc1sc(-c2ccc(OC(F)(F)F)cc2)nc1-c1ccc(OC)cc1`, for which the inhibition in test [1] came out at 39%.

Compound `CNCCN(C)Cc1sc(-c2cccc(OC(F)(F)F)c2)nc1-c1cccc(OC)c1` returned an inhibition in test [1] of 31%.

In test [1], `CNCCN(C)Cc1sc(-c2cccc(OC)c2)nc1-c1ccc(OC)cc1` yielded an inhibition of 43%.

Compound `CNCCN(C)Cc1sc(-c2cccc(N3CCOCC3)c2)nc1-c1ccc(OC)cc1` yielded an inhibition in [1] of 30%.

The record behind these values is ChEMBL document CHEMBL5325502, “Discovery of 2,4-diphenyl-substituted thiazole derivatives as PRMT1 inhibitors and investigation of their anti-cervical cancer effects” (Bioorg Med Chem, 2023).
